A word on the IC50: it is the midpoint of a concentration-inhibition curve.

Data on one compound can be found in patent US20120225889A1, “USE OF MACROCYCLIC LACTONE DERIVATIVES FOR THE TREATMENT OF INFLAMMATORY DISORDERS” (PIRAMAL LIFE SCIENCES LIMITED, priority 2010, published 2012).

What all share (format): cell-based
Test [1] relates to TNF-α. Kind of test: Screening in LPS stimulated THP-1 cells: TNF-α. The settings on record: Homo sapiens, 24 h, ELISA. As for the experimental part:
IL-6 (BD Biosciences, USA) production by LPS (Escherchia coli 0127:B8, Sigma, USA) in THP-1 cells (ATCC number: TIB202) was designed as in reference, Journal of Immunology, 151, 5631-5638, (1993), the disclosure of which is incorporated by reference for the teaching of the assay.
THP-1 cells were cultured in RPMI 1640 culture medium (Gibco BRL, UK) containing 100 U/mL penicillin and […] streptomycin, (100× solution, Sigma, USA) containing 10% FBS (JRH Biosciences, USA). 25,000 cells were seeded per well in 96-well plate (Nunc, USA). The cells were differentiated with PMA (Sigma, USA, prepared as 100 μg/mL stock in RPMI and was diluted to 5 ng/mL). The test compound (prepared as 20 mM stock in DMSO and diluted with DMSO to achieve the following final concentrations in the assay: 100, 10, 1, 0.1, 0.01, 0.001 and 0.0001 μM) or vehicle (0.5% DMSO) were added to the cells and the cells were incubated for 30 min at 37° C. LPS (Sigma, USA, prepared as 1 mg/mL stock in PBS) was added to achieve a final concentration of 1 μg/mL. Plates were incubated at 37° C. for 24 h at 5% CO2. Supernatants were harvested, and assayed for TNF-α and IL-6 by ELISA as described by the manufacturer (BD Biosciences, USA). Percent inhibition of cytokine release compared to the control was calculated. The IC50 values were calculated by a nonlinear regression method.
(An ELISA detects its analyte on a solid surface through an enzyme-linked reagent.)

The test system of a further test is IL-6. Put plainly: Cytokine release assay in hPBMCs: IL-6. The settings on record: Homo sapiens. How it is done: hPBMCs were obtained from healthy donors by centrifugation of heparinized venous blood over Ficoll/Hypaque solution (Histopaque-1077, Sigma, USA). Isolated hPBMCs were suspended in RPMI 1640 culture medium supplemented with 10% FBS and seeded at a density of 50,000 cells/well in a 96-well plate (Nunc, USA). The cells were incubated at 37° C., 5% CO2 for a period of 24 h. These cells were used for the lymphocyte proliferation as well as cytokine release assay.
The plated cells were treated with different concentrations of the test compound (prepared as mM stock in DMSO and diluted with DMSO to achieve the following final concentrations in the assay: 100, 10, 1, 0.1, 0.01, 0.001, 0.0001, 0.00001 and 0.000001 μM) and incubated for 30 min. The cells were then stimulated with PHA (prepared as 1 mg/mL stock in RPMI 1640 culture medium and used at a final concentration of 5 μg/mL). FK506 was used as a standard. The plates were incubated at 37° C., 5% CO2 for 48 h. The cytokines in the supernatant collected were detected using ELISA kit (BD biosciences, USA). The cytokines evaluated in the assay were TNF-α, IL-2, IL-6, and IFN-γ.

In test [2] the test system is TNF-α. Kind of test: Human monocyte assay (LPS-induced): TNF-α. To be noted: LPS stimulated human monocytes, 5 h. The text has this: The assay was designed as in reference, Physiological Research, 52, 593-598, (2003), the disclosure of which is incorporated by reference for the teaching of the assay.
The objective of the assay is to determine whether compounds of the present invention—mediated inhibition of LPS-induced cytokines from monocytic THP-1 cell line translates to physiologically relevant human cells. Accordingly, the effect of compounds of the present invention on LPS—induced cytokine production from freshly isolated human monocytes was ascertained.
Peripheral blood was collected from healthy donors into potassium EDTA vacutainer tubes (BD Biosciences, USA). hPBMCs were isolated using density gradient separation (Histopaque-1077; Sigma, USA) and suspended in assay medium which is RPMI culture medium (Sigma, USA) containing 10% heat inactivated FBS (JRH Biosciences, Australia), 100 U/mL penicillin (Sigma, USA) and […] streptomycin (Sigma, USA). Monocytes in the hPBMCs were counted using a Coulter Counter following which the cells were resuspended at 2×10^5 monocytes/mL of assay medium. A cell suspension containing 2×10^4 monocytes was aliquoted per well of a 96-well plate (Nunc, USA). Subsequently, the hPBMCs were incubated for 4-5 h at 37° C., 5% CO2. […] The IC50 values were calculated by a nonlinear regression method using Graph Pad software (Prism 3.03).

Where two headings read alike, the source gives them in different places.

Take `C/C=C/C(O)C(C)/C=C/C(=N\O)C(C)C(O)C(C)C1OC(=O)/C(OC)=C/C(C)=C/C(C)C(O)C(CC)C(O)C(C)C/C(C)=C/C=C/C1OC` (stereo not shown) [Compound of example 7, (3Z,5E,13E,15E)-18-((5Z,6E,10E)-3,9-Dihydroxy-5-(hydroxymino)-4,8-dimethyldodeca-6,10-dien-2-yl)-9-ethyl-8,10-dihydroxy-3,17-dimethoxy-5,7,11,13-tetramethyl oxacyclooctadeca-3,5,13,15-tetraen-2-one]: the IC50 is 18 µM in the test with TNF-α [1]; 10 nM with IL-6 (Table 3: PHA-PMA induced hPBMC's, 48 h, read-out: IL-6 IC50); 0.007 nM in the test on IL-6 (Table 4: mitogen stimulated production from hPBMC's, read-out: IL-6 (IC50 μM)); 10 µM in the test with TNF-α [2].
